# Where a name gives a salt, the structure may show the parent alone. Marks after values point to notes of the source that are not given here.
# How the values were obtained:
# CB1 = target: T1, CB1 (Homo sapiens, UniProt P21554); test: Radioligand binding; settings: 100 μM
# T1 construct: purchased Eurofins CEREP
# A1 = target: T2, A1 (Homo sapiens, UniProt P30542); test: Radioligand binding; settings: 100 μM
# T2 construct: purchased Eurofins CEREP
# CCK1 (CCKA) = target: T3, CCK1 (CCKA) (Homo sapiens, UniProt P32238); test: Radioligand binding; settings: 100 μM
# T3 construct: purchased Eurofins CEREP
# NK1 = target: T4, NK1 (Homo sapiens, UniProt P25103); test: Radioligand binding; settings: 100 μM
# T4 construct: purchased Eurofins CEREP
# ETB = target: T5, ETB (Homo sapiens, UniProt P24530); test: Radioligand binding; settings: 100 μM
# T5 construct: purchased Eurofins CEREP
# 5-HT5a = target: T6, 5-HT5a (Homo sapiens, UniProt P47898); test: Radioligand binding; settings: 100 μM
# T6 construct: purchased Eurofins CEREP
# NOP (ORL1) = target: T7, NOP (ORL1) (Homo sapiens, UniProt P41146); test: Radioligand binding; settings: 100 μM
# T7 construct: purchased Eurofins CEREP
# Y2 = target: T8, Y2 (Homo sapiens, UniProt P49146); test: Radioligand binding; settings: 100 μM
# T8 construct: purchased Eurofins CEREP
# V1a = target: T9, V1a (Homo sapiens, UniProt P37288); test: Radioligand binding; settings: 100 μM
# T9 construct: purchased Eurofins CEREP
# CCK2 (CCKB) = target: T10, CCK2 (CCKB) (Homo sapiens, UniProt P32239); test: Radioligand binding; settings: 100 μM
# T10 construct: purchased Eurofins CEREP
# EP2 = target: T11, EP2 (Homo sapiens, UniProt P43116); test: Radioligand binding; settings: 100 μM
# T11 construct: purchased Eurofins CEREP
# β2 = target: T12, β2 (Homo sapiens, UniProt P07550); test: Radioligand binding; settings: 100 μM
# T12 construct: purchased Eurofins CEREP
# A3 = target: T13, A3 (Homo sapiens, UniProt P0DMS8); test: Radioligand binding; settings: 100 μM
# T13 construct: purchased Eurofins CEREP
# AT1 = target: T14, AT1 (Homo sapiens, UniProt P30556); test: Radioligand binding; settings: 100 μM
# T14 construct: purchased Eurofins CEREP
# H2 = target: T15, H2 (Homo sapiens, UniProt P25021); test: Radioligand binding; settings: 100 μM
# T15 construct: purchased Eurofins CEREP
# MC4 = target: T16, MC4 (Homo sapiens, UniProt P32245); test: Radioligand binding; settings: 100 μM
# T16 construct: purchased Eurofins CEREP
# μ (MOP) = target: T17, μ (MOP) (Homo sapiens, UniProt P35372); test: Radioligand binding; settings: 100 μM
# T17 construct: purchased Eurofins CEREP
# [1] = target: T18, norepinephrine transporter (Homo sapiens, UniProt P23975); test: Radioligand binding; settings: 100 μM
# T18 construct: purchased Eurofins CEREP
# IP (PGI2) = target: T19, IP (PGI2) (Homo sapiens, UniProt P43119); test: Radioligand binding; settings: 100 μM
# T19 construct: purchased Eurofins CEREP
# NK2 = target: T20, NK2 (Homo sapiens, UniProt P21452); test: Radioligand binding; settings: 100 μM
# T20 construct: purchased Eurofins CEREP
# NK3 = target: T21, NK3 (Homo sapiens, UniProt P29371); test: Radioligand binding; settings: 100 μM
# T21 construct: purchased Eurofins CEREP
# PAC1 (PACAP) = target: T22, PAC1 (PACAP) (Homo sapiens, UniProt P41586); test: Radioligand binding; settings: 100 μM
# T22 construct: purchased Eurofins CEREP
# TNF-α = test: Radioligand binding; settings: 100 μM
# MT1 (ML1A) = target: T23, MT1 (ML1A) (Homo sapiens, UniProt P48039); test: Radioligand binding; settings: 100 μM
# T23 construct: purchased Eurofins CEREP
# AT2 = target: T24, AT2 (Homo sapiens, UniProt P50052); test: Radioligand binding; settings: 100 μM
# T24 construct: purchased Eurofins CEREP
# GAL2 = target: T25, GAL2 (Homo sapiens, UniProt O43603); test: Radioligand binding; settings: 100 μM
# T25 construct: purchased Eurofins CEREP
# BZD (peripheral) = target: T26, BZD (peripheral) (Rattus norvegicus, UniProt P16257); test: Radioligand binding; settings: 100 μM
# T26 construct: purchased Eurofins CEREP
# [2] = test system: CYP3A1 (pregnane X receptor); test: In vitro metabolic gene induction studies; type: cell-based, rat
# Method: Test 28 - In Vitro Metabolic Gene lnduction Studies
# :.!,iIir:- i- :: ar!-'{}-: i
# Solvent Code: DMSO Solvent Prep: Unit: uM
# Cell line source: Puracyp Molecular 257.7590
# Date Staded: 05+eb-20'10 Date Completed: 15-Feb-2010 Weight:
# Reference: Lamb bool#8 pg. 77 […]
# lsoform Code: CYP3A1 Cell line: RPXR lnduc60n mechanism:pregnane X receptor
# Concentration lnduction Cell […]
# Note: Box checked if data is significantty different.
# Max induction 2 fold @ 200uM
# (calculated): signlficant decrease in vlabllity at this conc€nbaffon in vitro.
# (1 picture or pasted object on this page, not shown here)
# Sigma 2 = target: T27, Sigma 2 (Homo sapiens, UniProt Q5BJF2); test: Radioligand binding
# T27 construct: purchased Eurofins CEREP
# Sigma 1 = target: T28, Sigma 1 (Homo sapiens, UniProt Q99720); test: Radioligand binding
# T28 construct: purchased Eurofins CEREP
# guinea pigs = test: Infiltration anesthesia (intradermal wheal test); type: in vivo
# Method: A painful reaction to a prick of the skin at the centre of the wheal three times and every 5 s with 5 min intervals during the first 30 min of observation was tested. The experiment was continued to achieve a return of a reaction to the prick. The control wheal was done by an intradermal injection of 0.1 mL of 0.9% NaCl [25]. Local anesthesia was determined by calculating the ratio of the number of positive responses (no flinch) to the number of negative responses (flinch).
# [3] = read-out: % inhibition of specific control binding
# [4] = read-out: % of control specific binding
# T28 sequence (Q99720 whole entry): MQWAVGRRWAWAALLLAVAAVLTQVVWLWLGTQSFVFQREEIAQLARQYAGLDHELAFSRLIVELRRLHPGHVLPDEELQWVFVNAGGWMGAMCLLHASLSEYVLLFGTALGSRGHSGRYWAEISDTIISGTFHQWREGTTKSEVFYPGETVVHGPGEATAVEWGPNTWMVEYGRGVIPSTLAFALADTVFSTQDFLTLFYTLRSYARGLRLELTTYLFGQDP
# T27 sequence (Q5BJF2 whole entry): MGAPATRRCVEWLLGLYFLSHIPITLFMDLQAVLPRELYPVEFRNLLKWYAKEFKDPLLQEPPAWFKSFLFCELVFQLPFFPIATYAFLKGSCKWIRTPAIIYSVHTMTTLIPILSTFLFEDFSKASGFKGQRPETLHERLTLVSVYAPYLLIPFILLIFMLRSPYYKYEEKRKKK
# T21 sequence (P29371 whole entry): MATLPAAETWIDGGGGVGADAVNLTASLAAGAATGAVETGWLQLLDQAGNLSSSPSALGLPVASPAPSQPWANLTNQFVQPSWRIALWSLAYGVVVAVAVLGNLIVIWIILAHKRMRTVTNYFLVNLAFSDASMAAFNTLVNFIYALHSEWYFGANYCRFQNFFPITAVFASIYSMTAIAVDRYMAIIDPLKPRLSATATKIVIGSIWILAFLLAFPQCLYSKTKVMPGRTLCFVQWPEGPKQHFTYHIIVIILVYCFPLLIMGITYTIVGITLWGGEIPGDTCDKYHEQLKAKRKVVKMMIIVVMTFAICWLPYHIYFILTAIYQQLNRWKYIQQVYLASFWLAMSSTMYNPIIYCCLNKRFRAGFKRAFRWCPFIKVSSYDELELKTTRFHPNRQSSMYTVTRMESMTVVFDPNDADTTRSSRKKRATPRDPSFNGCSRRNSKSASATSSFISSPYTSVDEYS
# T3 sequence (P32238 whole entry): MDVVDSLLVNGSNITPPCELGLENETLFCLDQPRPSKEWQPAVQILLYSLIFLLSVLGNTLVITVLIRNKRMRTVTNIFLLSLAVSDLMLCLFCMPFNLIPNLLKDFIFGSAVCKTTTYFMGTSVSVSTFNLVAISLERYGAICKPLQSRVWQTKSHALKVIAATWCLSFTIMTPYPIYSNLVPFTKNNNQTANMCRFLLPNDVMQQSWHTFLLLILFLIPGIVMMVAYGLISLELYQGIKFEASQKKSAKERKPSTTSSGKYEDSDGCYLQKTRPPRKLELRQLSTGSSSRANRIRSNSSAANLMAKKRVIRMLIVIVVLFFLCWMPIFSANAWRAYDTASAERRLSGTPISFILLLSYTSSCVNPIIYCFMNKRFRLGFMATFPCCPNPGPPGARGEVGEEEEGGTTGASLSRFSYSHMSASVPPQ
# T4 sequence (P25103 whole entry): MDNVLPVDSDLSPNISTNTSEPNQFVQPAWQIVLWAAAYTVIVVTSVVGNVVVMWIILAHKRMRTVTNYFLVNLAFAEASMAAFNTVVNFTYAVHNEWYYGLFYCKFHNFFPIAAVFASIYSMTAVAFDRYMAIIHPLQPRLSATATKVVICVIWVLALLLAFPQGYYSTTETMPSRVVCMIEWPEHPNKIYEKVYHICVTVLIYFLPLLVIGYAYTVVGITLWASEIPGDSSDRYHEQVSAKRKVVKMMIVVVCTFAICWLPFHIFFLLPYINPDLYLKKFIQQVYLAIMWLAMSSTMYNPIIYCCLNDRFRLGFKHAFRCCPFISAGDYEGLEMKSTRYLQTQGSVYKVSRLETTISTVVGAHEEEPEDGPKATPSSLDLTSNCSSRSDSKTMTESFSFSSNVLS
# T14 sequence (P30556 whole entry): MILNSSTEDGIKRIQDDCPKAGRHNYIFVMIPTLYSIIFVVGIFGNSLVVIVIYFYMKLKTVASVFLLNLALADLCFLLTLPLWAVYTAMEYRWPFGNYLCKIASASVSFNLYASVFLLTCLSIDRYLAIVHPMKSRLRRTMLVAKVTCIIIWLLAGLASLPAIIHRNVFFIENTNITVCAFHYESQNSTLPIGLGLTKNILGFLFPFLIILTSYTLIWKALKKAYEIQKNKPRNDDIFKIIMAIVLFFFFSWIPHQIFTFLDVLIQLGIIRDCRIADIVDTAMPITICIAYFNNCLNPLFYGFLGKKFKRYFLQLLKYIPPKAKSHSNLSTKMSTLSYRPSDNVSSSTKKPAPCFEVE
# T11 sequence (P43116 whole entry): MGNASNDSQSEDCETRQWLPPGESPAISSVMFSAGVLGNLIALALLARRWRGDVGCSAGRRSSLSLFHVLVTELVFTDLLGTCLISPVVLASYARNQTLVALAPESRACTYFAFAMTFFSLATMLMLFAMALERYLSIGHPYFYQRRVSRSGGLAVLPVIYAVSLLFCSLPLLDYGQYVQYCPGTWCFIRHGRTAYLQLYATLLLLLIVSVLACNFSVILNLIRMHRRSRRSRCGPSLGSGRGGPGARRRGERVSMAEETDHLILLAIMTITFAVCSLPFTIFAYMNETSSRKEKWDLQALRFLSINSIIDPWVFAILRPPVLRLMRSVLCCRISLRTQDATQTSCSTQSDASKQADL
# T18 sequence (P23975 whole entry): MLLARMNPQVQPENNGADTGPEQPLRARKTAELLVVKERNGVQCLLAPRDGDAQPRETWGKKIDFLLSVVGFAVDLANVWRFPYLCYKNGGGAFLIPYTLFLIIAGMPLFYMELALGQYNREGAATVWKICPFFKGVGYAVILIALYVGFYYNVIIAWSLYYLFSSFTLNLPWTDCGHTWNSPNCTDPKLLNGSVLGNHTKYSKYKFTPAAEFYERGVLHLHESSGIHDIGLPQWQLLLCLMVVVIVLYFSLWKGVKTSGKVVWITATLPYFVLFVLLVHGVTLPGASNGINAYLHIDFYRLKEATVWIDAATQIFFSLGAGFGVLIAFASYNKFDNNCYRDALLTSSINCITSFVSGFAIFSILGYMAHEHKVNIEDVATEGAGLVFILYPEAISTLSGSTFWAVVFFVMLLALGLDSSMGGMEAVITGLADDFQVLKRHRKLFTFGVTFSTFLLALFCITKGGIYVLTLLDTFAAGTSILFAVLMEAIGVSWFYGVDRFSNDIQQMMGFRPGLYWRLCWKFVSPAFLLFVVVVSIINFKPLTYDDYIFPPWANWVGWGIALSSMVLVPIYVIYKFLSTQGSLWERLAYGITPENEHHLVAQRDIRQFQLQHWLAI
# T22 sequence (P41586 21-468): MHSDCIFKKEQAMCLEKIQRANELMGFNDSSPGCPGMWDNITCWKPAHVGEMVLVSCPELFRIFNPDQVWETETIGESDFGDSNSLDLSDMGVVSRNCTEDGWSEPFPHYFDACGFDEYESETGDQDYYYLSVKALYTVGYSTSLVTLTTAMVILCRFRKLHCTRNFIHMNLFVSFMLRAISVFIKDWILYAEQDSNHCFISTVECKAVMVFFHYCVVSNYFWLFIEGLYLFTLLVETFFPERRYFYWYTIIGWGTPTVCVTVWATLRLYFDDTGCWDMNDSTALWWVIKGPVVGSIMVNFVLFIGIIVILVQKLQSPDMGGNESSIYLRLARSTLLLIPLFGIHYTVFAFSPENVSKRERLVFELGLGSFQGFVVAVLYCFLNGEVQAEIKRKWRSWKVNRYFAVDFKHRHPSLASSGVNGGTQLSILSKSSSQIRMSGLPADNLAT
# T20 sequence (P21452 whole entry): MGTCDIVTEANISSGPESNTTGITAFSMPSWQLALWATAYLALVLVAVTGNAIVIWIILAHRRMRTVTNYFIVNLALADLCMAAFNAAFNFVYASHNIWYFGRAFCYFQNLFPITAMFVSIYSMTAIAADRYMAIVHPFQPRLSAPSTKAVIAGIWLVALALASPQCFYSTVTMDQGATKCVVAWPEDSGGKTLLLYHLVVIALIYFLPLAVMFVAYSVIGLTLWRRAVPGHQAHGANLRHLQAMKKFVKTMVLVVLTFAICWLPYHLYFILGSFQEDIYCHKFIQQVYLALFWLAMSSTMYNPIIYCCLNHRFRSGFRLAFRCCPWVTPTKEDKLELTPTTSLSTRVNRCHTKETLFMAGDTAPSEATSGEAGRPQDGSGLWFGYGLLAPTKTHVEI
# T6 sequence (P47898 whole entry): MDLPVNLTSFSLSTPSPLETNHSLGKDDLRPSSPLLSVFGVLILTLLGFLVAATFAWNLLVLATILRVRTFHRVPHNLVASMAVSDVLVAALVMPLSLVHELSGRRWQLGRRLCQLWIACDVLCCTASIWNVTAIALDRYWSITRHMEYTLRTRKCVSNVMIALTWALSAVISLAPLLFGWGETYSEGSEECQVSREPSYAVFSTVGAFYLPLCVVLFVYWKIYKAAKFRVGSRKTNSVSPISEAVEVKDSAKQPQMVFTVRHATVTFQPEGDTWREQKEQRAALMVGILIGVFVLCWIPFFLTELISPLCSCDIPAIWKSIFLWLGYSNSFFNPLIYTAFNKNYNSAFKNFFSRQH
# T7 sequence (P41146 whole entry): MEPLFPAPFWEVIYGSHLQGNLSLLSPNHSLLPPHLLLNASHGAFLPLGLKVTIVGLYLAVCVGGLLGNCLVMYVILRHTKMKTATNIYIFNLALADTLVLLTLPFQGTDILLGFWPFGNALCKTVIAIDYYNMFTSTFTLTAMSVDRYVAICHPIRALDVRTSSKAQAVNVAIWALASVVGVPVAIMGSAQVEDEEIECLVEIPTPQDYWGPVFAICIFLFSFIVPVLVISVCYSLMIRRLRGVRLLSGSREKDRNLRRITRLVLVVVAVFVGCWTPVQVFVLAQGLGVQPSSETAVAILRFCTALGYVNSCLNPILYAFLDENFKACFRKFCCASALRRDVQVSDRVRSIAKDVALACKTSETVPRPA
# T26 sequence (P16257 whole entry): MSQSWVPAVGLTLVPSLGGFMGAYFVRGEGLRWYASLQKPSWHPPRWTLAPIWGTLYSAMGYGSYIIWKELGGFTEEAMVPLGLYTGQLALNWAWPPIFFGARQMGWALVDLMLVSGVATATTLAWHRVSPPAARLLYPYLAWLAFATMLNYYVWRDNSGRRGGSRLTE
smiles,measurement,setting,value
"CCC(CO)NCCOc1c(C)cccc1Cl (stereo not drawn) [Compound 4, R,S-2-((2-(2-chloro-6-methylphenoxy)ethyl)amino)butan-1-ol]",% of control specific binding,CB1,126.0%
same,% of control specific binding,A1,124.5%
same,% of control specific binding,CCK1 (CCKA),99.8%
same,% of control specific binding,NK1,82.1%
same,% of control specific binding,ETB,134.4%
same,% of control specific binding,5-HT5a,52.8%
same,% of control specific binding,NOP (ORL1),95.5%
same,% of control specific binding,Y2,126.5%
same,% of control specific binding,V1a,99.8%
same,% of control specific binding,CCK2 (CCKB),107.4%
same,% of control specific binding,EP2,75.4%
same,% of control specific binding,β2,85.1%
same,% of control specific binding,A3,115.1%
same,% of control specific binding,AT1,131.2%
same,% of control specific binding,H2,90.3%
same,% of control specific binding,MC4,92.0%
same,% of control specific binding,μ (MOP),50.1%
same,% of control specific binding,[1],55.0%
same,% of control specific binding,IP (PGI2),97.2%
same,% of control specific binding,NK2,88.7%
same,% of control specific binding,NK3,91.8%
same,% of control specific binding,PAC1 (PACAP),107.7%
same,% of control specific binding,TNF-α,96.5%
same,% of control specific binding,MT1 (ML1A),55.1%
same,% of control specific binding,AT2,108.2%
same,% of control specific binding,GAL2,111.9%
same,% of control specific binding,BZD (peripheral),75.1%
same,Max induction (calculated),[2]; @ 200uM,2 fold
same,EC50,"[2]; RPXR cell line, read-out: EC50 (calculated)",74 µM
"CCC(CO)NCCOc1c(C)cccc1Cl (stereo not drawn) [KM-408, R,S-2-((2-(2-chloro-6-methylphenoxy)ethyl)amino)butan-1-ol hydrochloride]",inhibition at 10 µM,Sigma 2; [3],94.8%
same,remaining activity at 10 µM,Sigma 2; [4],94.8%
same,inhibition at 10 µM,Sigma 1; [3],95%
same,remaining activity at 10 µM,Sigma 1; [4],95%
same,Inhibition of pain reaction,"guinea pigs; 0.125%, 30 min",33.3* %
same,Inhibition of pain reaction,"guinea pigs; 0.125%, 60 min",38.9* %
same,Inhibition of pain reaction,"guinea pigs; 0.125%, 120 min",33.3* %
same,Inhibition of pain reaction,"guinea pigs; 0.5%, 30 min",93.3*** %
same,Inhibition of pain reaction,"guinea pigs; 0.5%, 60 min",81.2*** %
same,Inhibition of pain reaction,"guinea pigs; 0.5%, 120 min",66.7*** %
same,Inhibition of pain reaction,"guinea pigs; 0.5%, 240 min",20.0%
same,Inhibition of pain reaction,"guinea pigs; […], 30 min",81.2*** %
same,Inhibition of pain reaction,"guinea pigs; […], 60 min",64.7** %
same,Inhibition of pain reaction,"guinea pigs; […], 120 min",70.6*** %
same,Inhibition of pain reaction,"guinea pigs; […], 240 min",33.3* %
same,infiltration anesthesia: active at,guinea pigs; guinea pigs,0.125%
